Test results taken from PubChem BioAssay (NCI).
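Cultured in 96-well plates, cells were exposed to test compound for 48 hours across five concentrations. GI50 = concentration required for 50% inhibition of growth. The concentration for full growth arrest is given as TGI.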

Tests used:
Experiment in all cases: NCI-60 cell line screen, 48 h
ACHN renal = system: ACHN renal
HCC-2998 colon = system: HCC-2998 colon
HL-60(TB) leukemia = system: HL-60(TB) leukemia
M14 melanoma = system: M14 melanoma
OVCAR-3 ovarian = system: OVCAR-3 ovarian
RXF 393 renal = system: RXF 393 renal
SF-268 CNS = system: SF-268 CNS
A549 NSCLC = system: A549 NSCLC
IGROV1 ovarian = system: IGROV1 ovarian
MDA-MB-435 = system: MDA-MB-435
NCI-H226 lung = system: NCI-H226 lung
T-47D breast = system: T-47D breast

SMILES	TGI (ACHN renal)	TGI (HCC-2998 colon)	TGI (HL-60(TB) leukemia)	TGI (M14 melanoma)	TGI (OVCAR-3 ovarian)	TGI (RXF 393 renal)	TGI (SF-268 CNS)	TGI (A549 NSCLC)	TGI (IGROV1 ovarian)	TGI (MDA-MB-435)	TGI (NCI-H226 lung)	TGI (T-47D breast)	GI50 (ACHN renal)	GI50 (HCC-2998 colon)	GI50 (IGROV1 ovarian)	GI50 (M14 melanoma)	GI50 (OVCAR-3 ovarian)	GI50 (SF-268 CNS)	GI50 (T-47D breast)
COC(=O)C(=O)Cc1nc2ccccc2o1	> 100 µM	> 100 µM	> 100 µM	> 100 µM	> 100 µM	> 100 µM	> 100 µM												
COc1cccc(C(=O)C#Cc2cnc(OC)nc2OC)c1	3.5 µM	17.5 µM	5.92 µM	6.28 µM	3.62 µM	1.39 µM	6.14 µM	21.4 µM	2.12 µM	5.24 µM	2.75 µM								
OC(c1cccnc1Cl)c1nc2ccccc2c2ccnc(Cl)c12 (stereo not given)	> 100 µM		12.5 µM	> 100 µM	> 100 µM	35.4 µM	> 100 µM	> 100 µM	> 100 µM	4.89 µM		> 100 µM							
CCN(CCN(CC)C(=O)Nc1ccccc1)C(=O)Nc1ccccc1	> 100 µM	> 100 µM	> 100 µM	> 100 µM		> 100 µM	> 100 µM	> 100 µM	> 100 µM		> 100 µM	> 100 µM							
O=C1CCCC/C1=C\c1ccc(Cl)c(Cl)c1	33.5 µM	42.7 µM	48.9 µM	42.2 µM			59.4 µM	> 100 µM	61.7 µM										
Cn1c(=O)n2n(c1=O)C(C)(C13CC4CC(CC(C4)C1)C3)C13CC4CC(CC1C4)CC23 (stereo not given)	> 100 µM		> 100 µM	> 100 µM	> 100 µM		> 100 µM	> 100 µM	> 100 µM	> 100 µM	> 100 µM	> 100 µM							
O=C1c2ccccc2N2OC3(N4CCCC4)CCCCC3C12c1ccccc1 (stereo not given)	43.8 µM	> 100 µM	53.7 µM	34.6 µM		39.4 µM	33.7 µM	52.1 µM	> 100 µM		> 100 µM								
CC(C)(C)OC(=O)NCCCCC(N)NC(=O)c1ccccc1 (stereo not given)	> 100 µM	> 100 µM		> 100 µM	> 100 µM	> 100 µM	> 100 µM	> 100 µM	> 100 µM	> 100 µM	> 100 µM	> 100 µM							
CC1CC(C#N)=C2NCCN2C1=O (stereo not given)		> 100 µM	> 100 µM	33.5 µM	> 100 µM	> 100 µM	> 100 µM	> 100 µM	> 100 µM	50.1 µM	> 100 µM	> 100 µM							
O=C1N[C@@H]2C(=C[C@H](O)[C@@H](O)[C@H]2O)c2cc3c(c(O)c21)OCO3		0.0681 µM	0.0862 µM		0.0639 µM		0.116 µM	0.306 µM	0.151 µM		0.0876 µM								
CN1CCN(P2(=S)Oc3ccc4ccccc4c3-c3c(ccc4ccccc34)O2)CC1		41.8 µM	39.9 µM		> 100 µM	> 94.7 µM	> 100 µM	> 100 µM	> 100 µM		> 92.3 µM								
COc1cc(O)c2c(=O)c(OC)c(-c3ccc(OC)c(OC)c3)oc2c1	> 100 µM	> 100 µM	> 100 µM	> 100 µM	> 100 µM		> 100 µM	> 100 µM	> 100 µM	> 100 µM		> 100 µM	> 100 µM	94.4 µM	> 100 µM	> 100 µM	> 100 µM	> 100 µM	31.1 µM
COc1cc(Nc2nc3cc(C(F)(F)F)ccc3n3cccc23)cc(OC)c1OC	> 100 µM	> 100 µM	> 100 µM	> 100 µM	> 100 µM	> 100 µM	> 100 µM	> 100 µM	> 100 µM	> 100 µM		9.91 µM							
CCOC(=O)c1c[nH]c2ccc3c(c2c1=O)S(=O)(=O)CC3 (tested in a mixture with another compound)		> 100 µM	> 100 µM		> 100 µM	> 100 µM	> 100 µM	> 100 µM	> 100 µM		> 100 µM								
COC(=O)C1CCC(=O)N1C(c1ccc2c(c1)OCO2)c1cc(OC)c(OC)c(OC)c1 (stereo not given)	> 100 µM	> 100 µM	> 100 µM	> 100 µM	> 100 µM		> 100 µM	> 100 µM	> 100 µM	> 100 µM	> 100 µM								
CC1(C)CC(=O)c2c(nc3c4c([nH]c(-c5ccc(Br)cc5)c24)CC(C)(C)C3)C1	> 100 µM	> 100 µM	> 100 µM	> 100 µM	> 100 µM	65.3 µM	> 100 µM	> 100 µM		> 100 µM	> 100 µM	> 100 µM							
O=C(c1ccco1)N(C(=O)N1CCN(c2ccccc2)CC1)S(=O)(=O)c1ccccc1	62.7 µM	> 100 µM	45.1 µM	60.4 µM	> 100 µM		> 100 µM	> 100 µM		56.3 µM	> 100 µM	61 µM							
CN(C)CCNC(=O)c1cccc2c(NC(CCC(N)=O)C(=O)O)c3ccccc3nc12 (stereo not given)	18.8 µM	55.6 µM		27.5 µM	> 100 µM		28.3 µM	64.6 µM	36.6 µM	23.1 µM	46.6 µM								
COc1ccc(C(=O)/C=C/c2ccc(OCC#N)cc2)cc1	> 100 µM	31.8 µM		42 µM	> 100 µM	30.7 µM	> 100 µM	> 100 µM	> 10 µM	59.3 µM	88.8 µM	46 µM							
O=C1Cc2c([nH]c3ccc(C(=O)O)cc23)-c2ccccc2N1	> 100 µM	> 100 µM	> 100 µM	> 100 µM	> 100 µM		> 100 µM	> 100 µM	> 100 µM	> 100 µM	> 100 µM	> 100 µM							
Cc1cnc2c(c1C)C(=O)c1ccccc1C2=O	> 100 µM	> 100 µM		> 100 µM	> 100 µM	> 100 µM	> 100 µM	> 100 µM	> 100 µM	39.1 µM	> 100 µM	> 100 µM							
